According to patent US11078198B2 (BRISTOL-MYERS SQUIBB COMPANY, priority 2017, dated 2021):

Biological target: T1, human FXR (Homo sapiens, UniProt Q96RI1)
T1 construct: expressed in transfected cells; host or cells: HEK293 cells stably carrying a 5xGal4-response-element firefly luciferase reporter, transiently transfected with pcDNA3.1-Gal4-FXR
T1 sequence (Q96RI1 262-486 limits assumed): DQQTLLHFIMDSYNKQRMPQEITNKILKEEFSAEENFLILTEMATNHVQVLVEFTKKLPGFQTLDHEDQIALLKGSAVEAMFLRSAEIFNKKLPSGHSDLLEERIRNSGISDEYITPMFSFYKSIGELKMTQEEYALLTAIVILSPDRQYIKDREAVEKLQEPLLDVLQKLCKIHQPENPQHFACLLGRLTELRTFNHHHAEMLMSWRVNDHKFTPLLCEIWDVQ
Test: transient human FXR/Gal4-luciferase reporter assay
Assay type: cell-based
Details: Gal4-hFXR transfected HEK293 reporter cells; relative to 8 μM GW-4064
Outline: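 Transient Gal4-hFXR LBD fusion (pcDNA3.1, Lipofectamine, overnight) expressed in a HEK293 reporter line stably bearing five Gal4 elements upstream of firefly luciferase, grown in charcoal/dextran-stripped FBS. Compound dilutions in DMSO incubated with cells overnight at 37° C, 5% CO2, before luciferase readout.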

Structure (SMILES)	EC50 [nM]
COc1cc2nc(N3CCC4(C=C(c5c(-c6c(Cl)cncc6Cl)noc5C5CC5)C4)CC3)sc2cc1C(=O)O [Example 51, 2-(2-(5-Cyclopropyl-3-(3,5-dichloropyridin-4-yl)isoxazol-4-yl)-7-azaspiro[3.5]non-1-en-7-yl)-5-methoxybenzo[d]thiazole-6-carboxylic acid]	72
O=C(O)c1cc2ccc(N3CCC4(C=C(c5c(-c6c(F)cccc6Cl)noc5C5CC5)C4)CC3)cc2cn1 [Example 158, 7-(2-(3-(2-Chloro-6-fluorophenyl)-5-cyclopropylisoxazol-4-yl)-7-azaspiro[3.5]non-1-en-7-yl)isoquinoline-3-carboxylic acid]	459
O=C(O)c1ccc2nc(N3CCC4(C=C(c5c(-c6c(Cl)cccc6Cl)noc5C5CC5)C4)CC3)oc2c1 [Example 114, 2-(2-(5-Cyclopropyl-3-(2,6-dichlorophenyl)isoxazol-4-yl)-7-azaspiro[3.5]non-1-en-7-yl)benzo[d]oxazole-6-carboxylic acid]	127
Cc1c(N2CCC3(C=C(c4c(-c5ccccc5C(F)(F)F)noc4C4CC4)C3)CC2)ccc2cc(C(=O)O)cnc12 [Example 170, 7-(2-(5-Cyclopropyl-3-(2-(trifluoromethyl)phenyl)isoxazol-4-yl)-7-azaspiro[3.5]non-1-en-7-yl)-8-methylquinoline-3-carboxylic acid]	1750
Cc1nc(N2CCC3(C=C(c4c(-c5c(Cl)cccc5Cl)noc4C4CC4)C3)CC2)ccc1C(=O)O [Example 124, 6-(2-(5-Cyclopropyl-3-(2,6-dichlorophenyl)isoxazol-4-yl)-7-azaspiro[3.5]non-1-en-7-yl)-2-methylnicotinic acid]	78
O=C(O)c1ccc2nc(N3CCC4(C=C(c5c(-c6ccccc6C(F)(F)F)noc5C5CC5)C4)CC3)cnc2c1 [Example 101, 2-(2-(5-Cyclopropyl-3-(2-(trifluoromethyl)phenyl)isoxazol-4-yl)-7-azaspiro[3.5]non-1-en-7-yl)quinoxaline-6-carboxylic acid]	17
Cc1cc(C(=O)O)cnc1N1CCC2(C=C(c3c(-c4c(Cl)cccc4Cl)noc3C3CC3)C2)CC1 [Example 121, 6-(2-(5-Cyclopropyl-3-(2,6-dichlorophenyl)isoxazol-4-yl)-7-azaspiro[3.5]non-1-en-7-yl)-5-methylnicotinic acid]	2590
O=C(O)c1ccc(N2CCC3(C=C(c4c(-c5c(Cl)cccc5Cl)noc4C4CC4)C3)CC2)cc1 [Example 10, 4-(2-(5-Cyclopropyl-3-(2,6-dichlorophenyl)isoxazol-4-yl)-7-azaspiro[3.5]non-1-en-7-yl)benzoic acid]	135
O=C(NS(=O)(=O)C1CC1)c1cc(F)c2nc(N3CCC4(C=C(c5c(-c6c(Cl)cccc6Cl)noc5C5CC5)C4)CC3)sc2c1 [Example 179, 2-(2-(5-Cyclopropyl-3-(2,6-dichlorophenyl)isoxazol-4-yl)-7-azaspiro[3.5]non-1-en-7-yl)-N-(cyclopropylsulfonyl)-4-fluorobenzo[d]thiazole-6-carboxamide]	13
O=C(O)c1cccc(N2CCC3(C=C(c4c(-c5c(Cl)cccc5Cl)noc4C4CC4)C3)CC2)c1 [Example 9, 3-(2-(5-Cyclopropyl-3-(2,6-dichlorophenyl)isoxazol-4-yl)-7-azaspiro[3.5]non-1-en-7-yl)benzoic acid]	4200
Cn1nc(C(=O)O)c2cc(N3CCC4(C=C(c5c(-c6ccccc6OC(F)(F)F)noc5C5CC5)C4)CC3)ccc21 [Example 174, 5-(2-(5-Cyclopropyl-3-(2-(trifluoromethoxy)phenyl)isoxazol-4-yl)-7-azaspiro[3.5]non-1-en-7-yl)-1-methyl-1H-indazole-3-carboxylic acid]	236
O=C(O)c1ccc(N2CCC3(C=C(c4c(C(F)F)cnn4-c4ccccc4C(F)(F)F)C3)CC2)nc1 [Example 223]	205
Cc1cccc(Cl)c1-c1noc(C2CC2)c1C1=CC2(CCN(c3nc4c(F)cc(C(=O)O)cc4s3)CC2)C1 [Example 103, 2-(2-(3-(2-Chloro-6-methylphenyl)-5-cyclopropylisoxazol-4-yl)-7-azaspiro[3.5]non-1-en-7-yl)-4-fluorobenzo[d]thiazole-6-carboxylic acid]	19
O=C(NS(=O)(=O)C1CC1)c1cc(OC(F)F)c2cc(N3CCC4(C=C(c5c(-c6cccnc6C(F)(F)F)noc5C5CC5)C4)CC3)ccc2n1 [Example 191, 6-(2-(5-Cyclopropyl-3-(2-(trifluoromethyl)pyridin-3-yl)isoxazol-4-yl)-7-azaspiro[3.5]non-1-en-7-yl)-N-(cyclopropylsulfonyl)-4-(difluoromethoxy)quinoline-2-carboxamide]	140
O=C(NS(=O)(=O)C1CC1)c1cc(OC(F)F)c2cc(N3CCC4(C=C(c5c(-c6ncccc6Cl)noc5C5CC5)C4)CC3)ccc2n1 [Example 189, 6-(2-(3-(3-Chloropyridin-2-yl)-5-cyclopropylisoxazol-4-yl)-7-azaspiro[3.5]non-1-en-7-yl)-N-(cyclopropylsulfonyl)-4-(difluoromethoxy)quinoline-2-carboxamide]	48
O=C(O)c1ccc2cc(N3CCC4(C=C(c5c(-c6c(F)cccc6Cl)noc5C5CC5)C4)CC3)ccc2n1 [Example 156, 6-(2-(3-(2-Chloro-6-fluorophenyl)-5-cyclopropylisoxazol-4-yl)-7-azaspiro[3.5]non-1-en-7-yl)quinoline-2-carboxylic acid]	326
CS(=O)(=O)NC(=O)c1cc(OC(F)F)c2cc(N3CCC4(C=C(c5c(-c6ccccc6C(F)(F)F)noc5C5CC5)C4)CC3)ccc2n1 [Example 186, 6-(2-(5-Cyclopropyl-3-(2-(trifluoromethyl)phenyl)isoxazol-4-yl)-7-azaspiro[3.5]non-1-en-7-yl)-4-(difluoromethoxy)-N-(methylsulfonyl)quinoline-2-carboxamide]	13
O=C(O)c1ccc2nc(N3CCC4(C=C(c5c(-c6ccccc6OC(F)(F)F)noc5C5CC5)C4)CC3)ccc2c1 [Example 140, 2-(2-(5-Cyclopropyl-3-(2-(trifluoromethoxy)phenyl)isoxazol-4-yl)-7-azaspiro[3.5]non-1-en-7-yl)quinoline-6-carboxylic acid]	133
O=C(O)c1cccc(OC2CCC3(CC2)CC(O)(c2c(-c4c(Cl)cccc4Cl)noc2C2CC2)C3)c1 (stereo not shown) [Example 207, 3-((2-(5-Cyclopropyl-3-(2,6-dichlorophenyl)isoxazol-4-yl)-2-hydroxyspiro[3.5]nonan-7-yl)oxy)benzoic acid]	4470
CS(=O)(=O)NC(=O)c1ccc2cc(N3CCC4(C=C(c5c(-c6c(Cl)cccc6Cl)noc5C5CC5)C4)CC3)ccc2n1 [Example 194, 6-(2-(5-Cyclopropyl-3-(2,6-dichlorophenyl)isoxazol-4-yl)-7-azaspiro[3.5]non-1-en-7-yl)-N-(methylsulfonyl)quinoline-2-carboxamide]	255
O=C(O)c1ccc2nc(N3CCC4(C=C(c5c(-c6c(Cl)cncc6Cl)noc5C5CC5)C4)CC3)sc2c1 [Example 63, 2-(2-(5-Cyclopropyl-3-(3,5-dichloropyridin-4-yl)isoxazol-4-yl)-7-azaspiro[3.5]non-1-en-7-yl)benzo[d]thiazole-6-carboxylic acid]	62
O=C(O)c1cc(F)c2nc(N3CCC4(C=C(c5c(-c6cccnc6C(F)(F)F)noc5C5CC5)C4)CC3)sc2c1 [Example 138, 2-(2-(5-Cyclopropyl-3-(2-(trifluoromethyl)pyridin-3-yl)isoxazol-4-yl)-7-azaspiro[3.5]non-1-en-7-yl)-4-fluorobenzo[d]thiazole-6-carboxylic acid]	319
CS(=O)(=O)NC(=O)c1cc(OC(F)F)c2cc(N3CCC4(C=C(c5c(-c6cnccc6C(F)(F)F)noc5C5CC5)C4)CC3)ccc2n1 [Example 187, 6-(2-(5-Cyclopropyl-3-(4-(trifluoromethyl)pyridin-3-yl)isoxazol-4-yl)-7-azaspiro[3.5]non-1-en-7-yl)-4-(difluoromethoxy)-N-(methylsulfonyl)quinoline-2-carboxamide]	63
O=C(O)c1cnc(N2CCC3(C=C(c4c(-c5c(Cl)cccc5Cl)noc4C4CC4)C3)CC2)cn1 [Example 19, 5-(2-(5-Cyclopropyl-3-(2,6-dichlorophenyl)isoxazol-4-yl)-7-azaspiro[3.5]non-1-en-7-yl) pyrazine-2-carboxylic acid]	110
O=C(O)c1cc(C(F)(F)F)c2cc(N3CCC4(C=C(c5c(-c6cnccc6C(F)(F)F)noc5C5CC5)C4)CC3)ccc2n1 [Example 90, 6-(2-(5-Cyclopropyl-3-(4-(trifluoromethyl)pyridin-3-yl)isoxazol-4-yl)-7-azaspiro[3.5]non-1-en-7-yl)-4-(trifluoromethyl)quinoline-2-carboxylic acid]	195
Cn1nc(C(=O)O)c2ccc(N3CCC4(C=C(c5c(-c6ccccc6C(F)(F)F)noc5C5CC5)C4)CC3)cc21 [Example 164, 6-(2-(5-Cyclopropyl-3-(2-(trifluoromethyl)phenyl)isoxazol-4-yl)-7-azaspiro[3.5]non-1-en-7-yl)-1-methyl-1H-indazole-3-carboxylic acid]	392
O=C(O)c1cccc2nc(N3CCC4(C=C(c5c(-c6c(Cl)cncc6Cl)noc5C5CC5)C4)CC3)ccc12 [Example 65, 2-(2-(5-Cyclopropyl-3-(3,5-dichloropyridin-4-yl)isoxazol-4-yl)-7-azaspiro[3.5]non-1-en-7-yl)quinoline-5-carboxylic acid]	65
O=C(O)c1cc(F)c2nc(N3CCC4(C=C(c5c(-c6c(F)cccc6F)noc5C5CC5)C4)CC3)sc2c1 [Example 137, 2-(2-(5-Cyclopropyl-3-(2,6-difluorophenyl)isoxazol-4-yl)-7-azaspiro[3.5]non-1-en-7-yl)-4-fluorobenzo[d]thiazole-6-carboxylic acid]	155
